Assay results as given in the Deep4Chem optical property database.
Blank lines part the entries; values can stand above or below the molecule they belong to.

Experiment: solvent given as SMILES

SMILES: O=c1[nH]c2[n+](c3ccccc13)[B-](F)(F)Oc1ccccc1-2
absorption maximum (in CC#N): 343 nm | absorption maximum (in Cc1ccccc1): 354 nm

SMILES: Cc1ccc(C(=O)/C=C/c2ccc(N(C)C)cc2)cc1
absorption maximum (in C1CCOC1): 404 nm | absorption maximum (in CC#N): 411 nm | absorption maximum (in CC(=O)O): 427 nm | absorption maximum (in CC(C)=O): 405 nm | absorption maximum (in CCO): 422 nm | absorption maximum (in CN(C)C=O): 419 nm | absorption maximum (in CO): 419 nm | absorption maximum (in Cc1ccccc1): 404 nm | absorption maximum (in ClC(Cl)Cl): 412 nm | absorption maximum (in c1ccccc1): 404 nm

SMILES: Cc1csc2[n+]1[B-](F)(F)n1c(c3cccc4cccc1c43)=N2
absorption maximum (in C1CCOC1): 476 nm | absorption maximum (in CC#N): 470 nm | absorption maximum (in CCCCCC): 477 nm | absorption maximum (in Cc1ccccc1): 479 nm | absorption maximum (in ClCCl): 445 nm

SMILES: COCCOCCOCCOCC(COCCOCCOCCOC)Oc1cc(/C=C/c2ccc(/C=C(\C#N)C(=O)c3ccccc3)cc2)c(OC(COCCOCCOCCOC)COCCOCCOCCOC)cc1/C=C/c1ccc(/C=C(\C#N)C(=O)c2ccccc2)cc1
absorption maximum (in ClCCl): 461 nm

SMILES: CC(C)(C)c1ccc2c(c1)c1cc(C(C)(C)C)ccc1n2-c1cccc(-c2nc(-c3cccc(-n4c5ccc(C(C)(C)C)cc5c5cc(C(C)(C)C)ccc54)c3)nc(-c3cccc(P(=O)(c4ccccc4)c4ccccc4)c3)n2)c1
absorption maximum (in C1CCOC1): 344.36 nm | absorption maximum (in CC#N): 344.36 nm | absorption maximum (in CC(C)=O): 344.36 nm | absorption maximum (in CN(C)C=O): 344.36 nm | absorption maximum (in Cc1ccccc1): 344.36 nm | absorption maximum (in ClC(Cl)Cl): 344.36 nm | absorption maximum (in ClCCl): 344.36 nm

SMILES: CC(C)(C)c1ccc2c(c1)c1cc(C(C)(C)C)ccc1n2-c1cc(-n2c3ccc(C(C)(C)C)cc3c3cc(C(C)(C)C)ccc32)c(-n2c3ccc(C(C)(C)C)cc3c3cc(C(C)(C)C)ccc32)c(C#N)c1-n1c2ccc(C(C)(C)C)cc2c2cc(C(C)(C)C)ccc21
absorption maximum (in Cc1ccccc1): 422.84 nm

SMILES: Cc1ccccc1C(=O)NN1C2=C(CC3=C1CC(C)(C)CC3=O)C(=O)CC(C)(C)C2
absorption maximum (in C1CCOC1): 370 nm | absorption maximum (in CC#N): 370 nm | absorption maximum (in CC(C)=O): 368 nm | absorption maximum (in CCCCCO): 378 nm | absorption maximum (in CO): 376 nm | absorption maximum (in ClC(Cl)Cl): 370 nm | absorption maximum (in ClCCl): 368 nm

SMILES: Cn1nc(-c2ccccc2)c2n[nH]nc2/c1=N\c1ccccn1
absorption maximum (in CC#N): 402 nm | absorption maximum (in CCO): 382 nm | absorption maximum (in Cc1ccccc1): 410 nm

SMILES: CCC12C(=C3C(=C4c5ccc(-c6ccc(C)s6)cc5S(=O)(=O)C41CC)C(F)(F)C(F)(F)C3(F)F)c1ccc(-c3ccc(C)s3)cc1S2(=O)=O (centres undefined)
absorption maximum (in C1COCCO1): 506 nm | absorption maximum (in CC#N): 507 nm | absorption maximum (in CCCCCC): 489 nm | absorption maximum (in CCO): 508 nm | absorption maximum (in CS(C)=O): 525.37 nm | absorption maximum (in ClC(Cl)(Cl)Cl): 497.35 nm | absorption maximum (in ClCCl): 507.67 nm

SMILES: CCCCCCCCCCCCCCCCCC(=O)Oc1cc2[nH]c(cc2CCOC)c2nc(ccc3[nH]c(cc3CCOC)c3nc1C(CCOC)=C3)C(CCOC)=C2
absorption maximum (in Cc1ccccc1): 646 nm

SMILES: CCn1c2sccc2c2c3nsnc3c3c4ccsc4n(CC)c3c21
absorption maximum (in C1CCOC1): 424 nm | absorption maximum (in CCOC(C)=O): 422 nm | absorption maximum (in CN(C)C=O): 430 nm | absorption maximum (in Cc1ccccc1): 423 nm | absorption maximum (in ClCCl): 425 nm

SMILES: COc1cc2c(cc1-c1ccccc1)Cc1c3c(c4c(c1-2)-c1cc(OC)c(-c2ccccc2)cc1C4)C(=O)N(CCC(C)C)C3=O
absorption maximum (in C1CCOC1): 405 nm | absorption maximum (in CC#N): 406 nm | absorption maximum (in CC(C)=O): 407 nm | absorption maximum (in CCOC(C)=O): 405 nm | absorption maximum (in CS(C)=O): 413 nm | absorption maximum (in Cc1ccccc1): 405 nm | absorption maximum (in ClC(Cl)Cl): 414 nm | absorption maximum (in ClCCl): 411 nm

SMILES: Clc1cnc2nn3ccccc3c2c1
absorption maximum (in C1CCOC1): 373 nm

SMILES: COc1ccc(/C=C/c2cc(/C=C/c3ccc(OC)cc3)ncn2)cc1
absorption maximum (in ClCCl): 359 nm

SMILES: CCOC(=O)/N=c1/oc2ccc(OC)cc2cc1C#N
absorption maximum (in ClCCl): 388 nm

SMILES: CCCCc1ccc2ccc3c(CCCC)cc(CCCC)c4ccc1c2c34
absorption maximum (in CCCCCC): 352 nm | absorption maximum (in CO): 351 nm | absorption maximum (in ClCCl): 354 nm

SMILES: Clc1cccc(-c2nc3sc4ccccc4c3s2)c1
absorption maximum (in CS(C)=O): 351 nm

SMILES: CCOC(=O)CC[N+]1=c2cc3c(cc2CCC1)=Cc1c(c2ccc(N(C)C)cc2oc1=O)O3
absorption maximum (in CC#N): 593 nm | absorption maximum (in CO): 591 nm | absorption maximum (in ClCCl): 606 nm | absorption maximum (in O): 587 nm

SMILES: Nc1nc2ccccc2[n+]([O-])n1
absorption maximum (in CC#N): 407 nm | absorption maximum (in O): 415 nm

SMILES: O=C1CC(=O)Nc2cc(Br)ccc2N1
absorption maximum (in CS(C)=O): 299 nm

SMILES: CN(C)c1ccc(-c2c(/C=C3/C=Cc4ccccc4N3Cc3ccccc3)c(=O)c2=O)cc1
absorption maximum (in C1CCCCC1): 358 nm | absorption maximum (in Cc1ccccc1): 364 nm | absorption maximum (in ClCCl): 511 nm

SMILES: CCCCCCCCn1nnc(-c2ccc(C#Cc3ccc(C#Cc4ccc(-c5nnn(CCCCCCCC)n5)cc4)c4nc5c6ccccc6c6ccccc6c5nc34)cc2)n1
absorption maximum (in C1CCOC1): 428 nm | absorption maximum (in Cc1ccccc1): 428 nm | absorption maximum (in ClCCl): 428 nm

Results, then the molecule that gave them:

absorption maximum (in C1COCCO1): 396 nm | absorption maximum (in CC#N): 398 nm | absorption maximum (in CCCCOCCCC): 395 nm | absorption maximum (in CCOC(C)=O): 394 nm
SMILES: Clc1nc(Cl)nc(Nc2ccc3cc4ccccc4cc3c2)n1

absorption maximum (in ClC(Cl)Cl): 408 nm
SMILES: COc1ccc(-c2oc3cccc4c5c(-c6ccc(OC)cc6)c(=N)oc6cccc(c2c34)c65)cc1

absorption maximum (in C1CCOC1): 409 nm
SMILES: O=c1oc2cccc3c4cccc5ccc6c7ccccc7c1c(c23)c6c54

absorption maximum (in CN(C)C=O): 668 nm
SMILES: C[Si](C)(C)O[Si]1(O[Si](C)(C)C)n2c3c4ccccc4c2/N=C2N=C(/N=c4/c5ccccc5/c(n41)=N/C1=NC(=N\3)/c3ccccc31)c1ccccc1\2

absorption maximum (in C1CCCCC1): 291 nm | absorption maximum (in CC#N): 289 nm | absorption maximum (in CO): 289 nm
SMILES: CCOC(=O)CCOc1ccc(C(c2c(C)[nH]c3ccccc23)c2c(C)[nH]c3ccccc23)cc1OC

absorption maximum (in ClCCl): 511 nm
SMILES: COc1ccc(C2=C(c3ccc(OC)cc3)c3cccc4c5c(cc(c34)O2)=NC(C#N)C(C#N)N=5)cc1 (centres undefined)

absorption maximum (in C1CCCCC1): 291 nm
SMILES: COc1ccc(-c2ccc(-c3ccccc3)cc2)cc1

absorption maximum (in CC#N): 362 nm | absorption maximum (in CCCCCC): 362 nm
SMILES: C(=C\c1ccc(N(c2ccccc2)c2ccccc2)cc1)/c1ccccc1

absorption maximum (in CO): 422 nm
SMILES: c1ccc(N(c2ccccc2)c2ccc(-c3ncc(-c4cnc(-c5ccc(N(c6ccccc6)c6ccccc6)cc5)s4)s3)cc2)cc1

absorption maximum (in C1CCOC1): 397.48 nm
SMILES: CC(C)(C)c1ccc(-c2nc(-c3ccc(C(C)(C)C)cc3)nc(-c3cc(C#N)c(-n4c5ccccc5c5c6oc7ccccc7c6ccc54)c(C#N)c3)n2)cc1

absorption maximum (in CO): 295 nm
SMILES: Cc1ccc(-c2nc(-c3ccc(O)cc3)[nH]c2-c2ccc(C)cc2)cc1

absorption maximum (in ClC(Cl)Cl): 489 nm
SMILES: N#CC1=CC(C#Cc2ccccc2)=CC(C#N)=P1(c1ccccc1)c1ccccc1

absorption maximum (in CCCCCC): 284 nm | absorption maximum (in CCCCO): 289 nm | absorption maximum (in CCO): 290 nm | absorption maximum (in CCOC(C)=O): 288 nm | absorption maximum (in ClCCl): 284 nm
SMILES: COc1cccc(-n2c(-c3ccc(F)cc3)nc(C)c2C)c1

absorption maximum (in ClCCl): 392 nm
SMILES: CC(C)(C)c1ccc(-c2cc(-c3ccc(-c4cc(-c5ccc(C(C)(C)C)cc5)c(C#N)s4)s3)sc2C#N)cc1

absorption maximum (in ClCCl): 369 nm
SMILES: CCCCC(CC)Cn1c2cc(-c3ccc(N(c4ccccc4)c4ccccc4)cc3)c(C#N)cc2c2cc(C#N)c(-c3ccc(N(c4ccccc4)c4ccccc4)cc3)cc21 (centres undefined)

absorption maximum (in CCO): 560 nm | absorption maximum (in ClCCl): 559 nm
SMILES: Cc1ccccc1-c1c2ccc(=[N+]3CCOCC3)cc-2oc2cc(N3CCCCC3)ccc12
